Test results reported in US20170209348A1, “BIOPHOTONIC COMPOSITIONS COMPRISING HALOGEN AND USES THEREOF” (KLOX Technologies Inc., priority 2014, published 2017).

Test: Photobleaching of Eosin Y in carbomer gel under blue light
Format: physicochemical
Details: 109 μg/g Eosin Y, 12% urea peroxide, 200 ppm KI, blue light 5 cm, 10 minutes
Description: In this experiment, a first carbomer gel comprising 109 μg/g of Eosin Y and 12% urea peroxide (UP) was prepared. […] The two gels were then illuminated with blue light (5 cm distance) for 10 minutes. The fluorescence was measured and recorded by a spectrophotometer.

[I-].[K+] [KI]
time taken to photobleach the chromophore: prolonged the time taken to photobleach the chromophore
